Test results taken from patent US20260022143A1, “Cyclic Peptide Inhibitors of IL-23” (JANSSEN PHARMACEUTICA NV, priority 2022, published 2026).
Starred links: 1 amine or outer side, 2 acyl side, 3 side chain; linkers in the order of their positions; H or OH if unused. Positions of bridges follow the written chain, without caps; N, C: chain ends. Non-standard residues stand in square brackets, D forms with d. Residues, ends and D or L forms follow the SMILES beside them. Groups on a side chain read outwards from the residue. ξ: configuration not given here. *: point of attachment. Me3N+(CH2)2O(CH2)2O(CH2)2CO = C[N+](C)(C)CCOCCOCCC(=O)*; CH2CH2OCH2CH2OCH2CH2NMe3+ = C[N+](C)(C)CCOCCOCC*; Trp(7-Me) = Cc1cccc2c(C[C@H](N)C(=O)O)c[nH]c12; Phe(4-CH2NH2) = NCc1ccc(C[C@H](N)C(=O)O)cc1; Abu(4-yl) = O=C([C@H](CC[*:3])N[*:1])[*:2]; Pentanoyl(5-guanidino) = NC(N)=NCCCCC(=O)*; γGlu = O=C(O)[C@H](CCC(=O)[*:2])N[*:1]; 2Nal = N[C@@H](Cc1ccc2ccccc2c1)C(=O)O; AEF = NCCOc1ccc(C[C@H](N)C(=O)O)cc1; dNMeY = CN[C@H](Cc1ccc(O)cc1)C(=O)O; 3Pal = N[C@@H](Cc1cccnc1)C(=O)O; Lys(Me) = CNCCCC[C@H](N)C(=O)O; NMeK = CN[C@@H](CCCCN)C(=O)O; Pen = CC(C)(S)[C@H](N)C(=O)O; αMeK = C[C@](N)(CCCCN)C(=O)O; Lauroyl = CCCCCCCCCCCC(=O)*; ξLys(Me) = CNCCCCC(N)C(=O)O; αMeC = C[C@](N)(CS)C(=O)O; Ac6c = NC1(C(=O)O)CCCCC1; Thp = NC1(C(=O)O)CCOCC1; X3 = C[N+](C)(C)CCCCC*; AEEA = NCCOCCOCC(=O)O; Sar = CNCC(=O)O

target: T1, IL-23R (Homo sapiens, UniProt Q5VWK5); experiment: IL23R Reporter Assay; type: cell-based; conditions: HEK293 cells containing IL-23R, IL-12RP1 and STAT-inducible firefly luciferase reporter; 10 ng/mL IL-23 (EC90); 5 h at 37° C.; read-out: IL23R Reporter Assay
T1 construct: host or cells: HEK293
T1 sequence (Q5VWK5 24-629): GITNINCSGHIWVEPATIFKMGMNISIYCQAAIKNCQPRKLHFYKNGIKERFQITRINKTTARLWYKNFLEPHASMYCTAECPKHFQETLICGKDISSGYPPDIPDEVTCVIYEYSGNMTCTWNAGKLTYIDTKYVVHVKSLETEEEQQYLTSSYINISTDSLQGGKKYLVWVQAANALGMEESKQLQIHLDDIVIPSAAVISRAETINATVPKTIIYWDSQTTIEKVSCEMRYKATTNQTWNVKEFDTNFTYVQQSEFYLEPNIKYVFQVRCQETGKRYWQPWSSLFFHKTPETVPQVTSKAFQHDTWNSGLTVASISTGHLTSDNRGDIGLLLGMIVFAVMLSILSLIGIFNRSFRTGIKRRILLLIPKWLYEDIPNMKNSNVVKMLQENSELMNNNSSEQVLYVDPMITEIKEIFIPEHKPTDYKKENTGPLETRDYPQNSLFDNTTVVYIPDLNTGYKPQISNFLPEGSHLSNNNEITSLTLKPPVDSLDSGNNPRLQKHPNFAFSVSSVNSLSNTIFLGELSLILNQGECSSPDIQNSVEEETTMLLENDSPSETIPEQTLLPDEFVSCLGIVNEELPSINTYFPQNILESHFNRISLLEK

Structure (SMILES) | IC50 [nM]
CC(=O)N(C)CCCC[C@@H]1NC(=O)[C@H](Cc2c[nH]c3c(C)cccc23)NC(=O)[C@H]([C@@H](C)O)NC(=O)[C@H](CC(=O)N(C)C)NC(=O)[C@@H](NC(=O)CCOCCOCC[N+](C)(C)C)C(C)(C)SSC(C)(C)[C@@H](C(=O)N[C@@H](Cn2cc(CC[N+](C)(C)C)nn2)C(=O)N[C@@H](Cc2ccc3ccccc3c2)C(=O)NC2(C(=O)N[C@@H](CCCCN(C)C(C)=O)C(=O)N[C@@H](CC(N)=O)C(=O)N[C@@H](Cc3cccnc3)C(=O)N(C)CC(=O)N(C)C)CCOCC2)NC1=O [compound 287, cPEG3aCO-Pen(3)-N(N(Me)2)-T-7MeW-K(NMeAc)-Pen(3)-Tzl(Ch)-2Nal-THP-K(NMeAc)-N-3Pya-Sar-CON(Me)2] | 24
CC(=O)NCCCC[C@H](NC(=O)[C@](C)(CCCCN)NC(=O)[C@H](Cc1ccc2ccccc2c1)NC(=O)[C@H](Cc1ccc(OCCN)cc1)NC(=O)[C@H]1NC(=O)[C@H](Cc2ccc(CNC(C)=O)cc2)NC(=O)[C@H](Cc2c[nH]c3c(C)cccc23)NC(=O)[C@H]([C@@H](C)O)NC(=O)[C@H](CC(N)=O)NC(=O)[C@@H](NC(C)=O)C(C)(C)SSC1(C)C)C(=O)N[C@@H](CC(N)=O)C(=O)N[C@H](CCCCN)C(=O)N(C)[C@H](Cc1ccc(O)cc1)C(N)=O [compound 23, MeCO-Pen(3)-N-T-7MeW-Paf(Ac)-Pen(3)-AEF-2Nal-aMeK-K(Ac)-N-k-NMeDTyr-CONH2] (Ac-[Pen]NT[Trp(7-Me)][Phe(4-CH2NH2)](Ac)[Pen][AEF][2Nal][αMeK]K(Ac)N[dK][dNMeY]-NH2; disulfide 1-6) | 150
CC(=O)N(C)CCCCC(NC(=O)C1(NC(=O)[C@H](Cc2ccc3ccccc3c2)NC(=O)[C@H](Cc2ccc(OCCOCCOCC[N+](C)(C)C)cc2)NC(=O)[C@H]2NC(=O)[C@H](CCCCN(C)C(C)=O)NC(=O)[C@H](Cc3c[nH]c4c(C)cccc34)NC(=O)[C@H]([C@@H](C)O)NC(=O)[C@H](CC(=O)N(C)C)NC(=O)[C@@H](NC(=O)CCOCCOCC[N+](C)(C)C)C(C)(C)SSC2(C)C)CCOCC1)C(=O)N[C@@H](CC(N)=O)C(=O)N[C@@H](C)C(=O)N(C)CC(=O)N(C)C (stereo partly shown) [compound 574, cPEG3aCO-Pen(3)-N(N(Me)2)-T-7MeW-K(NMeAc)-Pen(3)-APEG3F-2Nal-THP-K(NMeAc)-N-A-Sar-CON(Me)2] ({Me3N+(CH2)2O(CH2)2O(CH2)2CO}-[Pen]D(NMe2)T[Trp(7-Me)][Lys(Me)](Ac)[Pen]Y(CH2CH2OCH2CH2OCH2CH2NMe3+)[2Nal][Thp][ξLys(Me)](Ac)NA[Sar]-NMe2; disulfide 1-6) | 1390
CCCCCCCCCCCC(=O)N[C@@H](CCC(=O)NCCOCCOCC(=O)NCCOCCOCC(=O)NCCCC[C@H](NC(=O)C1(NC(=O)[C@H](Cc2ccc3ccccc3c2)NC(=O)[C@H](Cc2ccc(OCCCCC[N+](C)(C)C)cc2)NC(=O)[C@H]2NC(=O)[C@H](CCCCNC(C)=O)NC(=O)[C@H](Cc3c[nH]c4c(C)cccc34)NC(=O)[C@H]([C@@H](C)O)NC(=O)[C@H](CC(=O)N(C)C)NC(=O)[C@@H](NC(=O)CCOCCOCC[N+](C)(C)C)C(C)(C)SSC2(C)C)CCOCC1)C(=O)N[C@@H](CC(N)=O)C(=O)N[C@@H](Cc1cccnc1)C(=O)N(C)[C@@H](CCCCNC(=O)COCCOCCNC(=O)COCCOCCNC(=O)CC[C@H](NC(=O)CCCCCCCCCCC)C(=O)O)C(N)=O)C(=O)O [compound 353, cPEG3aCO-Pen(3)-N(N(Me)2)-T-7MeW-K(Ac)-Pen(3)-TMAPF-2Nal-THP-K(PEG2PEG2gEC12)-N-3Pya-NMeK(PEG2PEG2gEC12)-CONH2] ({Me3N+(CH2)2O(CH2)2O(CH2)2CO}-[Pen]D(NMe2)T[Trp(7-Me)]K(Ac)[Pen]Y(X3)[2Nal][Thp]K([AEEA-AEEA-γGlu-Lauroyl])N[3Pal][NMeK]([AEEA-AEEA-γGlu-Lauroyl])-NH2; disulfide 1-6) | 140
CCCCCCCCCCCC(=O)N[C@@H](CCC(=O)NCCOCCOCC(=O)NCCOCCOCC(=O)NCCCC[C@@H](C(N)=O)N(C)C(=O)[C@H](Cc1cccnc1)NC(=O)[C@H](CC(N)=O)NC(=O)[C@H](CCCCN(C)C(C)=O)NC(=O)C1(NC(=O)[C@H](Cc2ccc3ccccc3c2)NC(=O)[C@H](Cc2ccc(OCCCCC[N+](C)(C)C)cc2)NC(=O)[C@H]2NC(=O)[C@H](CCCCN(C)C(C)=O)NC(=O)[C@H](Cc3c[nH]c4c(C)cccc34)NC(=O)[C@H]([C@@H](C)O)NC(=O)[C@H](CC(=O)N(C)C)NC(=O)[C@@H](NC(=O)CCOCCOCC[N+](C)(C)C)C(C)(C)SSC2(C)C)CCOCC1)C(=O)O [compound 314, cPEG3aCO-Pen(3)-N(N(Me)2)-T-7MeW-K(NMeAC)-Pen(3)-TMAPF-2Nal-THP-K(NMeaC)-N-3Pya-NMeK(PEG2PEG2gEC12)-CONH2] ({Me3N+(CH2)2O(CH2)2O(CH2)2CO}-[Pen]D(NMe2)T[Trp(7-Me)][Lys(Me)](Ac)[Pen]Y(X3)[2Nal][Thp][Lys(Me)](Ac)N[3Pal][NMeK]([AEEA-AEEA-γGlu-Lauroyl])-NH2; disulfide 1-6) | 7
CCCCCCCCCCCC(=O)N[C@@H](CCC(=O)NCCOCCOCC(=O)NCCOCCOCC(=O)NCCCC[C@@H]1NC(=O)[C@@H](NC(=O)CCOCCOCC[N+](C)(C)C)C(C)(C)SSC(C)(C)[C@@H](C(=O)N[C@@H](Cc2ccc(OCCCCC[N+](C)(C)C)cc2)C(=O)N[C@@H](Cc2ccc3ccccc3c2)C(=O)NC2(C(=O)N[C@@H](CCCCN(C)C(C)=O)C(=O)N[C@@H](CC(N)=O)C(=O)N[C@@H](Cc3cccnc3)C(=O)N(C)CC(=O)N(C)C)CCOCC2)NC(=O)[C@H](CCCCN(C)C(C)=O)NC(=O)[C@H](Cc2c[nH]c3c(C)cccc23)NC(=O)[C@H]([C@@H](C)O)NC1=O)C(=O)O [compound 387, cPEG3aCO-Pen(3)-K(PEG2PEG2gEC12)-T-7MeW-K(NMeAc)-Pen(3)-TMAPF-2Nal-THP-K(NMeAc)-N-3Pya-Sar-CON(Me)2] ({Me3N+(CH2)2O(CH2)2O(CH2)2CO}-[Pen]K([AEEA-AEEA-γGlu-Lauroyl])T[Trp(7-Me)][Lys(Me)](Ac)[Pen]Y(X3)[2Nal][Thp][Lys(Me)](Ac)N[3Pal][Sar]-NMe2; disulfide 1-6) | 12

The next lines start with the values.

IC50 [nM] | Structure (SMILES)
4.5 | CC(=O)N(C)CCCC[C@@H]1NC(=O)[C@H](Cc2c[nH]c3c(C)cccc23)NC(=O)[C@H]([C@@H](C)O)NC(=O)[C@H](CC(=O)N(C)C)NC(=O)[C@@H](NC(=O)CCCCNC(=N)N)C(C)(C)SSC(C)(C)[C@@H](C(=O)N[C@@H](Cc2ccc(OCCCCC[N+](C)(C)C)cc2)C(=O)N[C@@H](Cc2ccc3ccccc3c2)C(=O)NC2(C(=O)N[C@@H](CCCCN(C)C(C)=O)C(=O)N[C@@H](CC(N)=O)C(=O)N[C@@H](Cc3cccnc3)C(=O)N(C)CC(=O)N(C)C)CCOCC2)NC1=O [compound 403, 4cpgCO-Pen(3)-N(N(Me)2)-T-7MeW-K(NMeAc)-Pen(3)-TMAPF-2Nal-THP-K(NMeAc)-N-3Pya-Sar-CON(Me)2] ({Pentanoyl(5-guanidino)}-[Pen]D(NMe2)T[Trp(7-Me)][Lys(Me)](Ac)[Pen]Y(X3)[2Nal][Thp][Lys(Me)](Ac)N[3Pal][Sar]-NMe2; disulfide 1-6)
55 | CC(=O)NCCCC[C@@H]1NC(=O)[C@H](Cc2c[nH]c3c(C)cccc23)NC(=O)[C@H]([C@@H](C)O)NC(=O)[C@H](CC(N)=O)NC(=O)[C@@H](NC(C)=O)C(C)(C)SSC(C)(C)[C@@H](C(=O)N[C@@H](Cc2ccc(OCCN)cc2)C(=O)N[C@@H](Cc2ccc3ccccc3c2)C(=O)NC2(C(=O)N[C@@H](CCC(=O)O)C(=O)N[C@@H](CC(N)=O)C(=O)N[C@@H](Cc3cccnc3)C(=O)N(C)CC(=O)N(C)C)CCOCC2)NC1=O [compound 276] (Ac-[Pen]NT[Trp(7-Me)]K(Ac)[Pen][AEF][2Nal][Thp]EN[3Pal][Sar]-NMe2; disulfide 1-6 (inferred))
6.4 | CC(=O)NCCCC[C@@H]1NC(=O)[C@H](Cc2c[nH]c3ccccc23)NC(=O)[C@H]([C@@H](C)O)NC(=O)[C@H](CC(N)=O)NC(=O)[C@@H](NC(=O)[C@@H](CCCNC(=N)N)NC(=O)CCOCCOCC[N+](C)(C)C)CCSC[C@@](C)(C(=O)N[C@@H](Cc2ccc(OCCN)cc2)C(=O)N[C@@H](Cc2ccc3ccccc3c2)C(=O)NC2(C(=O)N[C@@H](CCCCNC(C)=O)C(=O)N[C@@H](CC(N)=O)C(=O)N[C@@H](Cc3cccnc3)C(=O)N(C)CC(N)=O)CCCCC2)NC1=O [compound 548, cPEG3aCO-r-Abu(1)-N-T-W-K(Ac)-aMeC(1)-AEF-2Nal-THP-K(Ac-N-3Pya-Sar-CONH2] ({Me3N+(CH2)2O(CH2)2O(CH2)2CO}-[dR][Abu(4-yl)]NTWK(Ac)[αMeC][AEF][2Nal][Ac6c]K(Ac)N[3Pal][Sar]-NH2; thioether 2-7)
5.5 | CC(=O)NCCCC[C@@H]1NC(=O)[C@H](Cc2c[nH]c3c(C)cccc23)NC(=O)[C@H]([C@@H](C)O)NC(=O)[C@H](CC(N)=O)NC(=O)[C@@H](NC(=O)CCOCCOCC[N+](C)(C)C)C(C)(C)SSC(C)(C)[C@@H](C(=O)N[C@@H](Cc2ccc(OC(F)F)cc2)C(=O)N[C@@H](Cc2ccc3ccccc3c2)C(=O)NC2(C(=O)N[C@@H](CCCCNC(C)=O)C(=O)N[C@@H](CC(N)=O)C(=O)N[C@@H](Cc3cccnc3)C(=O)N(C)CC(N)=O)CCOCC2)NC1=O [compound 551, cPEG3aCO-Pen(3)-N-T-7MeW-K(Ac)-Pen(3)-YCF2H-2Nal-THP-K(Ac-N-3Pya-Sar-CONH2]
